Measurements from US20060110781A1, “Cholesterol detection reagent” (RIKEN, priority 2002, published 2006).

Tested on: NPC fibroblasts
Assay: Fate of cell surface fPEG-Chol, incorporation into meshwork structure
Conditions: for incorporation of fPEG-Chol into meshwork: inhibitor 5 μg/ml before 1 μM fPEG-Chol

Compound | incorporation of fPEG-Chol into meshwork | internalization of rhodamine dextran (5 μg/ml, 30 minutes, 1 mg/ml rhodamine dextran)
C[C@H]1CCC/C=C/[C@@H]2C[C@H](O)C[C@H]2[C@H](O)/C=C/C(=O)O1 [Brefeldin A] | did not significantly affect | 
C=C1[C@@H](C)[C@H]2[C@H](Cc3ccccc3)NC(=O)[C@]23OC(=O)/C=C/[C@H](O)CCC[C@@H](C)C/C=C/[C@H]3[C@@H]1O [cytochalasin B] | meshwork structure was disappeared | did not affect
COC(=O)Nc1nc2ccc(C(=O)c3cccs3)cc2[nH]1 [nocodazole] | did not significantly affect | 
